# Measured values from PMC4792926, “G9a-mediated methylation of ERα links the PHF20/MOF histone acetyltransferase complex to hormonal gene expression” (Nature Communications, 2016).
# Ends that are not written are not given here.
# Experiments:
# [1] = tested on: ERα target genes (GREB1, PR, TFF1); experiment: qPCR of E2-induced ERα target gene expression in MCF-7 cells; format: cell-based, human; conditions: for fold induction of GREB1, PR and TFF1: control (shCtrl) MCF-7, relative to untreated cells
# Method: (§1) Human MCF-7, T-47D, U2OS and HEK293T cells (ATCC) were cultured in DMEM (Cellgro) supplemented with 10% fetal bovine serum (FBS, Sigma). For G9a inhibitor treatment, BIX-01294 (Sigma) was added to the medium, at the indicated concentrations, 24 h before the cells were collected. For shRNA knockdown, 293T cells were co-transfected with pMD2.G and pPAX2 (Addgene) together with pLKO-shRNA constructs or a non-targeting pLKO-shRNA (pLKO-shCtrl). Viral supernatants were harvested after 48 h. For infections, MCF-7 or T-47D cells were incubated with viral supernatants in the presence of 8 μg ml^−1 polybrene. After 48 h, puromycin (2 μg ml^−1) was added to the DMEM. Cells were grown, with selection for 5–7 days to select for stable knockdown cells before oestrogen treatment. For oestrogen treatment, cells were starved in phenol red-free DMEM supplemented with 10% charcoal-stripped FBS (Sigma) for 3–4 days, and 10 nM 17β-estradiol (Sigma) or ethanol (vehicle) were added to the medium (3 or 6 h for gene expression studies, and 15 and 45 min for ChIP experiments) before the cells were collected.
# (§2) Reverse transcription and real-time PCR were performed as described previously. mRNA was prepared using the RNeasy Plus kit (Qiagen) and reverse transcribed using the First Strand Synthesis kit (Invitrogen). Quantitative real-time RT–PCR (qPCR) was performed on an ABI 7500-FAST Sequence Detection System using the Power SYBR Green PCR Master Mix (Applied Biosystems). Gene expression was calculated following normalization to GAPDH levels using the comparative Ct (cycle threshold) method and is shown as ‘Fold' relative to the expression of each gene in the control cells without E2 treatment that was arbitrarily set as ‘1'. The primer sequences used for RT–PCR are listed in Supplementary Table 5.
# [2] = tested on: ERα target genes (GREB1, PR, TFF1); experiment: qPCR of E2-induced ERα target gene expression in T-47D cells; format: cell-based, human; conditions: 10 nM E2, 3 or 6 h; G9a-depleted T-47D
# Method: as §1, with “For oestrogen treatment, cells were starved in phenol red-free DMEM supplemented with 10% charcoal-stripped FBS (Sigma) for 3–4 days, and 10 nM 17β-estradiol (Sigma) or ethanol (vehicle) were added to the medium (3 or 6 h for gene expression studies, and 15 and 45 min for ChIP experiments) before the cells were collected.” left out
# as §2, with “The primer sequences used for RT–PCR are listed in Supplementary Table 5.” left out
# MCF-7 cells = experiment: RNA-seq in MCF-7 cells ±E2; format: cell-based, human; conditions: 10 nM E2, 3 h
# Method: as §1, with “For oestrogen treatment, cells were starved in phenol red-free DMEM supplemented with 10% charcoal-stripped FBS (Sigma) for 3–4 days, and 10 nM 17β-estradiol (Sigma) or ethanol (vehicle) were added to the medium (3 or 6 h for gene expression studies, and 15 and 45 min for ChIP experiments) before the cells were collected.” left out
# RNA-seq samples were sequenced using the Illumina Hiseq 2000, and raw reads were mapped to the human reference genome (hg19) and transcriptome using the RNA-seq unified mapper. Read counts for each transcript were calculated using HTseq v0.6.1 using default parameters. […] For the PHF20 knockdown data set, the common dispersion and tag wise dispersion were calculated using the edgeR ‘estimateCommonDisp' and ‘estimateTagwise-Disp' functions, respectively. […]
# [3] = tested on: H4K16ac on ERα target gene promoters; experiment: Histone H4K16ac ChIP-qPCR in MCF-7 cells; format: cell-based, human
# Method: as §1
# (§3) ChIP analysis was performed essentially as described previously. Briefly, cells were crosslinked with 1% formaldehyde for 10 min at room temperature, and the reaction was stopped with 125 mM glycine. Nuclei were isolated by resuspending the cells in swelling buffer containing 5 mM PIPES, pH 8.0, 85 mM KCl, 1% NP-40 and complete protease inhibitors for 20 min at 4 °C. The isolated nuclei were resuspended in nuclei lysis buffer (50 mM Tris, pH 8.0, 10 mM EDTA, 1% SDS) and sonicated using a Bioruptor Sonicator (Diagenode). Samples were immunoprecipitated with 2–4 μg of the appropriate antibodies overnight at 4 °C. Immunoprecipitates were washed twice with dialysis buffer (50 mM Tris pH 8.0, 2 mM EDTA, 0.2% Sarkosyl) and four times with IP wash buffer (100 mM Tris, pH 8.0, 500 mM LiCl, 1% NP-40 and 1% deoxycholic acid sodium salt). After reverse crosslinking was performed, the DNA was eluted and purified using a PCR purification kit (Qiagene). The primer sequences used for ChIP analyses are listed in Supplementary Table 4.
# [4] = tested on: ERα on GREB1 and PR promoters; experiment: ERα ChIP-qPCR in MCF-7 cells; format: cell-based, human; conditions: E2, 15 and 45 min
# Method: as §1
# as §3, with “The primer sequences used for ChIP analyses are listed in Supplementary Table 4.” left out
# ERαK235me2 = experiment: Immunofluorescence of ERαK235me2 in MCF-7 cells; format: cell-based, human; conditions: 10 nM 17β-estradiol, 45 min; E2-deprived MCF-7
# Method: MCF-7 cells were E2-depleted for 3 days and treated with 10 nM 17β-estradiol or ethanol for 45 min. Cells were then fixed in 4% formaldehyde, washed and permeabilized in 0.5% Triton X-100 on ice for 10 min. Cells were then blocked in 3% BSA, incubated with primary antibodies in 3% BSA for 2 h, washed, and probed with fluorescein-conjugated secondary antibodies in 3% BSA for 1 h. Cells on the slide were then washed, covered with mounting medium (with DAPI) and observed using an Olympus confocal microscope FluoView FV1000.
# (d) ERαK235, but not K303, is required for the coactivator function of G9a in an estrogen response element- (ERE) driven luciferase assay. U2OS cells were cotransfected with G9a, NCOA2 and ERα (WT, K235R, or K303R) together with an ERE-Firefly luciferase and a Renilla luciferase, and the luciferase activity was determined 24 hrs after E2 treatment.
# (e) G9a has a catalytic activity-dependent and independent coactivator activity of ERα. U2OS cells were cotransfected with ERα, NCOA2 and […] (WT or H1113K) together with an ERE-Firefly luciferase and a Renilla luciferase, and the luciferase activity was determined as described in the Method section.
# (f) Both the E2-dependent and E2-independent ERα coactivator functions of G9a require the ERαK235 residue. […]
# 53BP1 Tudor = experiment: Chromatin-associated domain array (CADOR 5.0), 53BP1 Tudor; format: binding; conditions: biotinylated peptide on CADOR 5.0; K235 methylation-dependent
# Method: (§4) For peptide pulldown assays, 1 μg of biotinylated histone and ERα peptides with or without methylation were incubated with 1 μg GST-PHF20 Tudor in binding buffer (50 mM Tris-HCl, pH 7.5, 300 mM NaCl, 0.1% NP-40 and 1 mM PMSF) for overnight. Streptavidin beads (GE Healthcare) were added into the mixture and incubated for 1 h with rotation. The beads were then washed three times, and analysed by SDS−PAGE and western blotting. For the protein domain array, the CADOR 5.0 protein domain array was probed with biotinylated ER peptides as described previously. The protein domains spotted on the CADOR 5.0 array are listed in the Supplementary Fig. 5. […]
# (§5) Recombinat Proteins Construct Sources a - Cheryl Arrowsmith d - Jiemin W ong g - Albert Jeltsch j - Judd Rice n - Alla Grishok b - Subhashini Sadasivem e - Or Gozani h - Yi Zhang k - Marc Timmers o - Olli Silvennoinen c - Jocelyn Coté f - Thomas Jenuwein i - Adrian Bird l - Michelle Barton p - Logan Donaldson […]
# (§6) Supplementary Figure 5. Domain layout of the Chromatin-Associated Domain Array […]
# (§7) (1 picture or pasted object on this page, not shown here)
# S. pombe SPF30 Tudor = experiment: Chromatin-associated domain array (CADOR 5.0), SPF30 Tudor; format: binding; conditions: biotinylated peptide on CADOR 5.0; K235 methylation-dependent
# Method: as §4, §5, §6, §7
# [5] = tested on: PHF20/PHF20L Tudor domains; experiment: Chromatin-associated domain array (CADOR 5.0), PHF20/PHF20L Tudors; format: binding; conditions: biotinylated peptide on CADOR 5.0; K235 methylation-dependent
# Method: as §4, §5, §6, §7
# PHF20 Tudor [6] = experiment: Peptide pull-down with GST-PHF20 Tudor; format: binding, human; conditions: 1 μg biotinylated peptide, 1 μg GST-PHF20 Tudor, 50 mM Tris-HCl pH 7.5, 300 mM NaCl, 0.1% NP-40, overnight
# Method: (§8) The pGEX constructs encoding human G9a, ERα and ERα fragments including AF1 (aa 1–190), DBD (aa 175–250), hinge (aa 251–310), DBD+hinge (aa 175–310), LBD (aa 305–596) and the second Tudor domain of PHF20 (aa 58–148) were expressed in E. coli Rosetta (DE3) pLysS cells. After induction with IPTG (0.5 mM) for 16–18 h at 18 °C, cells were collected by centrifugation at 5,000g, lysed by sonication and purified using Glutathione Sepharose 4B beads (GE Healthcare). For the NMR titration assays, PHF20 Tudor was expressed in the ^15NH4Cl-supplemented (Sigma) minimal media, and the GST tag was cleaved with PreScission protease, and the cleaved protein was concentrated using Millipore concentrators (Millipore).
# (§9) For peptide pulldown assays, 1 μg of biotinylated histone and ERα peptides with or without methylation were incubated with 1 μg GST-PHF20 Tudor in binding buffer (50 mM Tris-HCl, pH 7.5, 300 mM NaCl, 0.1% NP-40 and 1 mM PMSF) for overnight. Streptavidin beads (GE Healthcare) were added into the mixture and incubated for 1 h with rotation. The beads were then washed three times, and analysed by SDS−PAGE and western blotting. For the protein domain array, the CADOR 5.0 protein domain array was probed with biotinylated ER peptides as described previously. The protein domains spotted on the CADOR 5.0 array are listed in the Supplementary Fig. 5.
# [7] = tested on: PHF20 Tudor W97A and Y103A mutants; experiment: Peptide pull-down with PHF20 Tudor mutants; format: binding, human; conditions: W97A and Y103A mutants of PHF20 Tudor
# Method: as §8, §9
# PHF20 Tudor [8] = experiment: 1H,15N HSQC NMR titration of PHF20 Tudor; format: binding, human
# Method: as §8
# The ^1H,^15N HSQC spectra of 0.2 mM uniformly ^15N-labelled PHF20 Tudor (in 25 mM Tris-HCl, pH 7.5 buffer, 150 mM NaCl, 5 mM dithiothreitol and ∼8% D2O) were collected at 298 K on a Varian INOVA 600 MHz spectrometer. Binding was monitored by titrating unmodified ERα and ERαK235me2 peptides (aa 228–239) against the PHF20 Tudor domain. NMR data were processed and analysed with NMRPipe and NMRDraw as previously described. NMR assignments for PHF20 Tudor were taken from the Biological Magnetic Resonance Data Bank (BMRB 17673)[31].
compound,measurement,setting,value
"C[C@]12CC[C@@H]3c4ccc(O)cc4CC[C@H]3[C@@H]1CC[C@@H]2O [E2, 17β-estradiol]",E2-induced activation of GREB1 and PR on PHF20 depletion,"[1]; 10 nM E2, 3 or 6 h, PHF20 knockdown MCF-7",drastically decreased
same,"fold induction of GREB1, PR and TFF1","[1]; 10 nM E2, 3 h",~4 fold
same,"fold induction of GREB1, PR and TFF1","[1]; 10 nM E2, 6 h",~6 fold
same,E2-induced gene activation on G9a depletion,[2],drastically decreased
same,number of E2-activated genes,MCF-7 cells,774 genes
same,E2-dependent H4K16ac and ERα on GREB1 and PR promoters (H4K16ac),"[3]; E2, 15 and 45 min, G9a-depleted MCF-7",markedly reduced
same,E2-dependent increase of H4K16ac on GREB1 and PR promoters,"[3]; E2, 15 and 45 min, PHF20-depleted MCF-7",greatly diminished
same,H4K16ac levels on GREB1 and PR promoters,"[3]; E2, 15 and 45 min, control MCF-7",dramatic increase in H4K16ac levels
same,H4K16ac on genes not regulated by PHF20,"[3]; E2, MCF-7",no apparent H4K16ac signals were detected
same,levels of ERα on GREB1 and PR promoters,[4]; G9a-depleted MCF-7,markedly reduced
same,ERα occupancy on the promoters of GREB1 and PR,[4]; PHF20 knockdown MCF-7,no or minimal ERα occupancy was detected
same,ERα on the promoters of GREB1 and PR,[4]; control MCF-7,E2-dependent increase of ERα on the promoters of GREB1 and PR
same,ERαK235me2 level,ERαK235me2,increased upon E2 stimulation
"ERα peptide (aa 227–244) bearing dimethylated K235: ERα peptide (aa 227–244) bearing dimethylated K235, biotinylated, used to probe the CADOR array (CTIDKNRRK(Me2)SCQACRLRK; cysteine pairing not given here; also: biotin, end not given here)",recognition by 53BP1 Tudor,53BP1 Tudor,recognized the ERα peptide in a K235 methylation-dependent manner
same,recognition by S. pombe SPF30 Tudor,S. pombe SPF30 Tudor,recognized the ERα peptide in a K235 methylation-dependent manner
same,recognition by PHF20/PHF20L Tudor,[5],recognized the ERα peptide in a K235 methylation-dependent manner
"ERαK235me2 peptide: ERα peptide dimethylated at K235; aa 228–239 in NMR titrations, biotinylated in pull-downs (TIDKNRRK(Me2)SCQA; also: biotinylated in pull-downs, end not given here; UniProt P03372 228-239, looked up, fragment)",interaction with PHF20 Tudor (pull-down),PHF20 Tudor [6],strong interaction
same,binding to PHF20 Tudor W97/Y103 mutants (pull-down),[7],abolished the binding
same,chemical shift changes of PHF20 Tudor,"PHF20 Tudor [8]; 0.2 mM 15N-labelled PHF20 Tudor, 25 mM Tris-HCl pH 7.5, 150 mM NaCl, 298 K, 600 MHz",large chemical shift changes
same,"backbone amide resonances A95, W97, Y103, A105, V118, F120, D122-Q126 of PHF20 Tudor","PHF20 Tudor [8]; HSQC titration, 0.2 mM PHF20 Tudor, pH 7.5, 298 K",significant shifting and broadening
